Laboratory results reported in patent US9302999B2, “Substituted triazoles as herbicides” (E. I. DU PONT DE NEMOURS AND COMPANY, priority 2012, dated 2016).

Columns and labels:
Format in all cases: in vivo
[1] = tested on: barnyardgrass (Echinochloa crus-galli); assay: Test A pre-/postemergence: barnyardgrass
In short: (§1)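 Soil medium was loam blended with sand; treatments pre- and postemergence were applied concurrently, postemergence at one- to two-leaf stage. Approximately ten days in greenhouse preceded visual comparison with untreated controls, scored 0 (no effect) to 100 (complete control).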

[2] = tested on: crabgrass, large (large crabgrass, Digitaria sanguinalis); assay: Test A pre-/postemergence: crabgrass, large
In short: as §1

[3] = tested on: foxtail, giant (giant foxtail, Setaria faberii); assay: Test A pre-/postemergence: foxtail, giant
In short: as §1

[4] = tested on: morningglory (Ipomoea spp.); assay: Test A pre-/postemergence: morningglory
In short: as §1

[5] = tested on: pigweed (Amaranthus retroflexus); assay: Test A pre-/postemergence: pigweed
In short: as §1

[6] = tested on: velvetleaf (Abutilon theophrasti); assay: Test A pre-/postemergence: velvetleaf
In short: as §1

[7] = tested on: wheat (Triticum aestivum); assay: Test A pre-/postemergence: wheat
In short: as §1

[8] = tested on: corn (Zea mays); assay: Test A pre-/postemergence: corn
In short: as §1

[9] = tested on: rice (Oryza sativa); assay: Test C flooded paddy test: rice; conditions: scale 0 to 100 (0 no effect, 100 complete control)
In short: (§2)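 Plants were grown to the 2-leaf stage, pots flooded to 3 cm above soil, and test compounds applied directly to the paddy water, with that depth held throughout. After 13 to 15 days in a greenhouse, injury was visually rated against controls on a 0 (no effect) to 100 (complete control) scale.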

[10] = tested on: sedge, umbrella (small-flower umbrella sedge, Cyperus difformis); assay: Test C flooded paddy test: sedge, umbrella; conditions: scale 0 to 100 (0 no effect, 100 complete control)
In short: as §2

[11] = tested on: ducksalad (Heteranthera limosa); assay: Test C flooded paddy test: ducksalad; conditions: scale 0 to 100 (0 no effect, 100 complete control)
In short: as §2

[12] = tested on: barnyardgrass (Echinochloa crus-galli); assay: Test C flooded paddy test: barnyardgrass; conditions: scale 0 to 100 (0 no effect, 100 complete control)
In short: as §2

[13] = Postemergence, 125 g ai/ha, 0 to 100 scale, 0 is no effect, 100 is complete control
[14] = Postemergence, 500 g ai/ha, visual rating on 0 to 100 scale (0 no effect, 100 complete control), approximately ten days
[15] = Preemergence, 125 g ai/ha, 0 to 100 scale where 0 is no effect and 100 is complete control
[16] = Preemergence, 500 g ai/ha, 0 to 100 scale (0 no effect, 100 complete control)
[17] = Flood (flooded paddy test), 125 g ai/ha, visual rating after 13 to 15 days
[18] = Flood (flooded paddy test), 250 g ai/ha, visual rating after 13 to 15 days
[19] = Postemergence, 1000 g ai/ha, visual rating on 0 to 100 scale (0 no effect, 100 complete control), approximately ten days
[20] = Preemergence, 1000 g ai/ha, 0 to 100 scale, 0 is no effect, 100 is complete control

Cc1nn(-c2ccc(C(F)(F)F)cc2)nc1Oc1cccc(OC(F)(F)F)c1 [Compound 119]
60: Foxtail, Giant plant response rating [3, 14] | Plant response rating, Pigweed [5, 15]
80: Plant response rating, Ducksalad [11, 17] | Plant response rating, Ducksalad [11, 18]
70: Crabgrass, Large plant response rating [2, 14] | Plant response rating, Crabgrass, Large [2, 15] | Morningglory plant response rating [4, 14] | Pigweed plant response rating [5, 13]
40: Crabgrass, Large plant response rating [2, 13] | Velvetleaf plant response rating [6, 14]
25: Plant response rating, Rice [9, 17] | Plant response rating, Rice [9, 18] | Plant response rating, Barnyardgrass [12, 17]
75: Plant response rating, Sedge, Umbrella ([10]; Flood, 62 g ai/ha)
15: Plant response rating, Rice ([9]; Flood, 62 g ai/ha)
50: Plant response rating, Foxtail, Giant [3, 15] | Plant response rating, Ducksalad ([11]; Flood, 62 g ai/ha)
85: Plant response rating, Sedge, Umbrella [10, 17] | Plant response rating, Sedge, Umbrella [10, 18]
20: Barnyardgrass plant response rating [1, 14] | Foxtail, Giant plant response rating [3, 13] | Morningglory plant response rating [4, 13] | Velvetleaf plant response rating [6, 13] | Plant response rating, Barnyardgrass ([12]; Flood, 62 g ai/ha)
100: Plant response rating, Crabgrass, Large [2, 16] | Plant response rating, Foxtail, Giant [3, 16] | Pigweed plant response rating [5, 14] | Plant response rating, Pigweed [5, 16]
10: Barnyardgrass plant response rating [1, 13] | Plant response rating, Morningglory [4, 16] | Plant response rating, Velvetleaf [6, 16] | Wheat plant response rating [7, 14] | Corn plant response rating [8, 13]
30: Plant response rating, Barnyardgrass [1, 16] | Corn plant response rating [8, 14] | Plant response rating, Barnyardgrass [12, 18]
0: Plant response rating, Barnyardgrass [1, 15] | Plant response rating, Morningglory [4, 15] | Plant response rating, Velvetleaf [6, 15] | Wheat plant response rating [7, 13] | Plant response rating, Wheat [7, 15] | Plant response rating, Wheat [7, 16] | Plant response rating, Corn [8, 15] | Plant response rating, Corn [8, 16]

FC(F)(F)c1ccc(-n2nc(Br)c(Cc3cccc(C(F)(F)F)c3)n2)cc1 [Compound 123]
75: Plant response rating, Sedge, Umbrella [10, 18] | Plant response rating, Ducksalad [11, 17] | Plant response rating, Ducksalad [11, 18]
100: Morningglory plant response rating [4, 19] | Pigweed plant response rating [5, 19] | Velvetleaf plant response rating [6, 19]
10: Barnyardgrass plant response rating [1, 19] | Barnyardgrass plant response rating [1, 20] | Velvetleaf plant response rating [6, 20] | Plant response rating, Rice [9, 18]
80: Crabgrass, Large plant response rating [2, 19] | Foxtail, Giant plant response rating [3, 20] | Pigweed plant response rating [5, 20]
20: Wheat plant response rating [7, 19]
0: Morningglory plant response rating [4, 20] | Wheat plant response rating [7, 20] | Corn plant response rating [8, 20] | Plant response rating, Rice [9, 17] | Plant response rating, Rice ([9]; Flood, 31 g ai/ha) | Plant response rating, Rice ([9]; Flood, 62 g ai/ha) | Plant response rating, Sedge, Umbrella ([10]; Flood, 31 g ai/ha) | Plant response rating, Sedge, Umbrella ([10]; Flood, 62 g ai/ha) | Plant response rating, Ducksalad ([11]; Flood, 31 g ai/ha) | Plant response rating, Barnyardgrass [12, 17] | Plant response rating, Barnyardgrass [12, 18] | Plant response rating, Barnyardgrass ([12]; Flood, 31 g ai/ha) | Plant response rating, Barnyardgrass ([12]; Flood, 62 g ai/ha)
40: Corn plant response rating [8, 19] | Plant response rating, Ducksalad ([11]; Flood, 62 g ai/ha)
50: Plant response rating, Sedge, Umbrella [10, 17]
60: Crabgrass, Large plant response rating [2, 20] | Foxtail, Giant plant response rating [3, 19]

Cc1nn(-c2ccc(F)cc2)nc1Oc1cc(C(F)(F)F)nn1C [Compound 126]
80: Plant response rating, Barnyardgrass [1, 16] | Morningglory plant response rating [4, 14] | Velvetleaf plant response rating [6, 14] | Plant response rating, Sedge, Umbrella [10, 18]
70: Barnyardgrass plant response rating [1, 14] | Plant response rating, Barnyardgrass [1, 15] | Plant response rating, Foxtail, Giant [3, 15] | Morningglory plant response rating [4, 13]
60: Foxtail, Giant plant response rating [3, 13]
40: Velvetleaf plant response rating [6, 13] | Plant response rating, Velvetleaf [6, 16] | Plant response rating, Sedge, Umbrella ([10]; Flood, 62 g ai/ha) | Plant response rating, Barnyardgrass [12, 18]
100: Plant response rating, Crabgrass, Large [2, 15] | Plant response rating, Crabgrass, Large [2, 16] | Pigweed plant response rating [5, 13] | Pigweed plant response rating [5, 14] | Plant response rating, Pigweed [5, 15] | Plant response rating, Pigweed [5, 16]
90: Crabgrass, Large plant response rating [2, 13] | Crabgrass, Large plant response rating [2, 14] | Foxtail, Giant plant response rating [3, 14] | Plant response rating, Foxtail, Giant [3, 16]
10: Plant response rating, Morningglory [4, 15] | Plant response rating, Velvetleaf [6, 15] | Wheat plant response rating [7, 13] | Plant response rating, Rice [9, 17]
0: Plant response rating, Wheat [7, 15] | Plant response rating, Wheat [7, 16] | Plant response rating, Corn [8, 15] | Plant response rating, Rice ([9]; Flood, 31 g ai/ha) | Plant response rating, Rice ([9]; Flood, 62 g ai/ha) | Plant response rating, Ducksalad ([11]; Flood, 31 g ai/ha) | Plant response rating, Ducksalad ([11]; Flood, 62 g ai/ha) | Plant response rating, Barnyardgrass ([12]; Flood, 31 g ai/ha) | Plant response rating, Barnyardgrass ([12]; Flood, 62 g ai/ha)
65: Plant response rating, Ducksalad [11, 18]
30: Plant response rating, Morningglory [4, 16] | Corn plant response rating [8, 14] | Plant response rating, Sedge, Umbrella ([10]; Flood, 31 g ai/ha) | Plant response rating, Barnyardgrass [12, 17]
75: Plant response rating, Sedge, Umbrella [10, 17]
20: Barnyardgrass plant response rating [1, 13] | Wheat plant response rating [7, 14] | Corn plant response rating [8, 13] | Plant response rating, Corn [8, 16] | Plant response rating, Rice [9, 18] | Plant response rating, Ducksalad [11, 17]

CCc1nn(-c2ccc(C(F)(F)F)cc2)nc1Cn1cnc(C(F)(F)F)n1 [Compound 130]
10: Wheat plant response rating [7, 20]
100: Morningglory plant response rating [4, 19] | Pigweed plant response rating [5, 19] | Velvetleaf plant response rating [6, 19]
75: Plant response rating, Sedge, Umbrella [10, 18]
20: Velvetleaf plant response rating [6, 20] | Plant response rating, Ducksalad [11, 18]
30: Wheat plant response rating [7, 19] | Corn plant response rating [8, 19] | Plant response rating, Sedge, Umbrella ([10]; Flood, 62 g ai/ha)
40: Morningglory plant response rating [4, 20]
90: Crabgrass, Large plant response rating [2, 19] | Crabgrass, Large plant response rating [2, 20] | Foxtail, Giant plant response rating [3, 20] | Pigweed plant response rating [5, 20]
50: Barnyardgrass plant response rating [1, 19] | Barnyardgrass plant response rating [1, 20]
0: Corn plant response rating [8, 20] | Plant response rating, Rice ([9]; Flood, 62 g ai/ha) | Plant response rating, Ducksalad ([11]; Flood, 62 g ai/ha) | Plant response rating, Barnyardgrass ([12]; Flood, 62 g ai/ha)
15: Plant response rating, Rice [9, 18] | Plant response rating, Barnyardgrass [12, 18]
80: Foxtail, Giant plant response rating [3, 19]

CCc1nn(-c2ccc(C(F)(F)F)cc2)nc1Cn1nc(C(F)(F)F)cc1C [Compound 131]
100: Pigweed plant response rating [5, 19]
40: Velvetleaf plant response rating [6, 19]
20: Barnyardgrass plant response rating [1, 20] | Plant response rating, Ducksalad [11, 18]
70: Morningglory plant response rating [4, 19]
30: Barnyardgrass plant response rating [1, 19] | Corn plant response rating [8, 19]
10: Morningglory plant response rating [4, 20] | Plant response rating, Barnyardgrass [12, 18]
90: Crabgrass, Large plant response rating [2, 19] | Crabgrass, Large plant response rating [2, 20] | Foxtail, Giant plant response rating [3, 20] | Pigweed plant response rating [5, 20]
0: Velvetleaf plant response rating [6, 20] | Wheat plant response rating [7, 19] | Wheat plant response rating [7, 20] | Corn plant response rating [8, 20] | Plant response rating, Rice [9, 18] | Plant response rating, Rice ([9]; Flood, 62 g ai/ha) | Plant response rating, Sedge, Umbrella [10, 18] | Plant response rating, Sedge, Umbrella ([10]; Flood, 62 g ai/ha) | Plant response rating, Ducksalad ([11]; Flood, 62 g ai/ha) | Plant response rating, Barnyardgrass ([12]; Flood, 62 g ai/ha)
50: Foxtail, Giant plant response rating [3, 19]

Cc1nn(-c2ccc(C(F)(F)F)cc2)nc1Cn1cnc(C(F)(F)F)n1 [Compound 132]
30: Wheat plant response rating [7, 19] | Corn plant response rating [8, 19]
100: Crabgrass, Large plant response rating [2, 20] | Foxtail, Giant plant response rating [3, 20] | Morningglory plant response rating [4, 19] | Pigweed plant response rating [5, 19] | Pigweed plant response rating [5, 20]
60: Morningglory plant response rating [4, 20] | Velvetleaf plant response rating [6, 20]
80: Barnyardgrass plant response rating [1, 19]
90: Barnyardgrass plant response rating [1, 20] | Crabgrass, Large plant response rating [2, 19] | Foxtail, Giant plant response rating [3, 19] | Velvetleaf plant response rating [6, 19]
65: Plant response rating, Sedge, Umbrella [10, 18]
20: Plant response rating, Ducksalad [11, 18]
0: Wheat plant response rating [7, 20] | Corn plant response rating [8, 20] | Plant response rating, Rice [9, 18] | Plant response rating, Rice ([9]; Flood, 62 g ai/ha) | Plant response rating, Sedge, Umbrella ([10]; Flood, 62 g ai/ha) | Plant response rating, Ducksalad ([11]; Flood, 62 g ai/ha) | Plant response rating, Barnyardgrass [12, 18] | Plant response rating, Barnyardgrass ([12]; Flood, 62 g ai/ha)
